Experimental data published in US6608111B1, “Method for treating or preventing prostatic conditions” (Southern Illinois University Office of Research, …, priority 1998, dated 2003).
Entries after “also recorded” stand apart in the source; their conditions may differ.

Assays:
[1] = tested on: male Sprague-Dawley rats; assay: Example 4: effects on prostate and testis of male rats, 6 weeks; type: in vivo, rat; settings: for testis histology: Leydig cells / testis histology: spermatogenesis: FIGS. 5a-f; for Prostate Weight as % Body Weight / Seminal Vesicle Weight as % Body Weight / Testis Weight as % Body Weight / Body Weight (g): 0.1 ug/g of body weight once a day, mean ± SEM; for Body Weight (g): n = 10
Procedure: Sixty male Sprague-Dawley rats, 7-8 weeks of age, were randomly assigned to groups of ten animals. Each group was randomly assigned to one of six treatments: Vehicle control (C), Estradiol-17β(E), (−)-Z-BDDA, (+)-Z-BDDA, (−)-HAA, and (+)-HAA. The compounds were all administered at a dose of 0.1 μg/g of body weight in 0.1 cc once a day for 6 weeks. The estrogenic compounds were dissolved in 10% ethanol and 90% olive oil vehicle. A temperature of 21° C. and an artificial 12 h light-dark cycle were maintained in the animal room. All animals were maintained on standard chow in powdered form for six weeks, and then sacrificed after an overnight fast under i.p. pentobarbitol anesthesia (50 mg/kg). Animal weight was measured weekly during the study. During sacrifice, blood was collected via cardiac puncture. Immediately following sacrifice, the fat pads, livers, pituitaries, testes, seminal vesicles, and prostate were removed and weighed, and snap frozen in liquid nitrogen. Prostates and one testis from 2-3 animals in each treatment group were fixed in 10% formalin for histological examination. These tissues were fixed overnight, blocked in paraffin, sectioned at 4 μm, stained with Hematoxylin and Eodsin, cover slipped, and examined microscopically. Quantitative results were subjected to an analysis of variance and means separated by a Tukey's Test (SYSTAT, Chicago, Ill.).

[2] = tested on: female mice; settings: E2 5 g/animal/day, (±)-Z-BDDA 5, 50, and 500 g/animal/day, versus control group; cited from earlier work
[3] = tested on: male and female Sprague-Dawley rats; assay: Experiment 1: chronic treatment of male and female rats, 4 weeks; type: in vivo, rat; settings: mean ± SEM; for Food intake: 2.5 ug/g of body weight daily injection; for Food intake / Food intake (g): n = 5
Procedure: Twenty-five male and 25 female Sprague-Dawley rats, 9-10 weeks of age, were randomly assigned to groups of five animals, respectively, as a control group (no treatment) (C), for treatment with vehicle only (V), estradiol (E), (±)-Z-BDDA, or (+)-Z-BDDA. Each animal in group V received a daily 0.1 cc injection of a 10% ethanol-90% olive oil solution; the other treatments received their respective compound as a daily 0.1 cc injection, e.g., 2.5 μg of compound/g of body weight, in a 10% ethanol-90% olive oil solution. A temperature of 21° C. and an artificial 12-h light-dark cycle was maintained in the animal room. All animals were maintained on standard chow in powdered form for four weeks, then sacrificed after an overnight fast under i.p. pentobarbital anesthesia (50 mg/kg). Animal weight and food intake were measured weekly during the study, and the subsequent food-efficiency ratio [FER(g of weight change/g of food intake)] was determined. During sacrifice, blood was collected (via cardiac puncture) for cholesterol measurements. Immediately following sacrifice the fat pads and reproductive organs were removed and weighed.
Experiments 1 and 2 employed a randomized design. All data were analyzed by one-way analysis of variance (ANOVA,)and post-hoc comparisons were made with Tukey pairwise comparisons test. Significance was confirmed at p≦0.05 (SYSTAT 7.0, SPSS INC., 1997), and all values are reported as means±standard error of the mean.

[4] = tested on: estrogen receptors ERα and ERβ; settings: direct receptor binding assays or dose-response profiles of estrogen-responsive reporter genes in cell culture; cited from earlier work
[5] = female rats (uterus), 2.5 ug/g of body weight daily
[6] = female rats, 2.5 ug/g of body weight daily, g of weight change/g of food intake
[7] = female rats, 2.5 ug/g of body weight daily
[8] = male rats (testis), 2.5 ug/g of body weight daily
[9] = male rats, 2.5 ug/g of body weight daily

SMILES	testis histology: Leydig cells ([1]; 0.1 μg/g daily)	testis histology: spermatogenesis ([1]; 0.1 μg/g daily)	Prostate Weight as % Body Weight [1]	Seminal Vesicle Weight as % Body Weight [1]	Testis Weight as % Body Weight [1]	Body Weight (g) [1]	Food intake ([3]; female rats) [g]	FER (food efficiency ratio) [3, 6]	Cholesterol (mg/dl) [3, 7]	Visceral fat (g) [3, 7]	Uterus/testis weight (g) [3, 8]	Cholesterol (mg/dl) [3, 9]	FER (food efficiency ratio) [3, 9]	Prostate weight (g) [3, 9]	Visceral fat (g) [3, 9]	Food intake (g) [3, 9]	further results
C[C@]12CCC3c4ccc(O)cc4CCC3[C@@H]1CCC2O (single isomer, unassigned; (+)) [estradiol, (+)-17β-estradiol, reference compound]	small	halted at round (Golgi phase) spermatids	0.05 ± 0.00^1 % Body Weight	0.02 ± 0.00^1 % Body Weight	0.49 ± 0.13^1,4 % Body Weight	207.2 ± 4.6^1 g	371.6 ± 17.8	0.035 ± 0.011	44.9 ± 15.8^1 mg/dl	0.8 ± 0.1^1 g	0.94 ± 0.13^1,2 g	51.5 ± 9.5^1,2 mg/dl	−0.057 ± 0.012^1,2	0.09 ± 0.01^1,2 g	4.2 ± 0.4^2 g	298.2 ± 18.8^1 g	rate of weight gain [2]: increased; Uterus/testis weight [3, 5]: 1.58 ± 0.15 g
CC[C@H]1c2ccc3cc(O)ccc3c2CC[C@@]1(C)C(=O)O [(+)-Z-BDDA, (+)-Z-bisdehydrodoisynolic acid]	normal	normal	0.05 ± 0.01^1 % Body Weight	0.23 ± 0.12^2 % Body Weight	0.98 ± 0.15 % Body Weight	234.8 ± 10.1^1,2 g	315.2 ± 18.4	0.045 ± 0.017^4	35.1 ± 8.6^1 mg/dl	2.1 ± 0.3^1,3 g	0.84 ± 0.06^1,2 g	24.6 ± 2.2^1,2,3 mg/dl	−0.174 ± 0.027^1,2,3,4	0.13 ± 0.04^1,2,3 g	5.1 ± 0.2^2 g	326.0 ± 9.5^1 g	binding affinity for estrogen receptors [4]: even lower than that of the (−) enantiomer; prostate histology (alveoli) ([1]; 0.1 μg/g daily, FIGS. 4a-f): normal alveoli; also recorded: tubules and alveoli being slightly smaller; gross testes weights unadjusted for bodyweight ([1]; 0.1 μg/g daily, data not shown): lighter (P<0.05) than those in control rats; Uterus/testis weight (g) [3, 5]: 2.57 ± 0.79^1,2 g
